Test results taken from patent US5646138A, “Contignasterol compounds and pharmaceutical compositions comprising the same” (University of British Columbia, priority 1992, dated 1997).
Entries after “also recorded” stand apart in the source; their conditions may differ.

How the values were obtained:
[1] = system: tracheal tissues; experiment: ovalbumine (antigen)-induced contraction of tracheal tissues from sensitized guinea pigs; type: cell-based, guinea pig; details: antigen ovalbumine (OA)
Description: We have used the contignasterol as defined in paragraph one of the Summary to block bronchoconstriction induced in guinea pigs. Guinea pigs were sensitized to ovalbumine (OA) that can serve as an antigen. The trachea from these animals after exposure to the antigen (OA) contracted in a similar manner as to in vivo situation.

[2] = system: platelets; experiment: platelet aggregation caused by collagen; type: cell-based
Description: (§1) PAF is a local mediator of thrombosis. Similarly, collagen exposure of vessel walls leads to the formation of […] clot in the vessels. Therefore, prevention of the formation of blood clots has direct implication in the treatment of thrombosis and associated cardiovascular diseases.
(§2) PAF and collagen were used at their maximal concentrations which induced 100% aggregation of platelets.

[3] = system: allergen-induced challenge; experiment: relative potencies of different isomers of contignasterol against allergen-induced challenge
Description: Table 4 illustrates the relative potencies of different isomers of contignasterol against allergen-induced challenge.

[4] = system: platelets; experiment: platelet aggregation caused by platelet activating factor (PAF); type: cell-based
Description: as §1, §2

[5] = system: rat mast cells; details: induced by anti-IgE; cited from earlier work

Compound | inhibition at 10 µM [3] [%] | inhibition of histamine release from rat mast cells (in words) [5] | also measured
CC(C)C1CC(O)OC([C@@H](C)[C@H]2CC(=O)[C@@H]3[C@@H]4[C@@H](O)[C@H](O)[C@H]5[C@@H](O)[C@H](O)CC[C@]5(C)[C@H]4CC[C@]23C)C1 (some centres unmarked) [Compound 1, contignasterol] | 43 |  | contraction of trachea pretreated with contignasterol after exposure to antigen (in words) [1]: did not significantly contract; also recorded: inhibited airway smooth muscle contraction; aggregation of platelets caused by collagen (in words) [2]: inhibited aggregation of platelets; aggregation of platelets caused by PAF (in words) [4]: inhibited aggregation of platelets
CC(C)C1CC(O)OC([C@@H](C)[C@H]2CC(=O)[C@H]3[C@@H]4[C@@H](O)[C@H](O)[C@H]5[C@@H](O)[C@H](O)CC[C@]5(C)[C@H]4CC[C@]23C)C1 (some centres unmarked) [Compound 2, 14-epicontignasterol] | 25 |  | 
CC(C)C[C@]1(O)C[C@@H](C)[C@H]2[C@@H]1C(=O)[C@@H]1[C@@H]3[C@@H](O)[C@H](O)[C@H]4C[C@H](O)CC[C@]4(C)[C@H]3CC[C@]21C [xestobergsterol A, 23S-16β, 23-cyclo-3α, 6α, 7β, 23-tetrahydroxy-5α, 14β-cholestan-15-one] |  | potent inhibitors of histamine release | 
COC1CC(C(C)C)CC([C@@H](C)[C@H]2CC(=O)[C@@H]3[C@@H]4[C@@H](O)[C@H](O)[C@H]5[C@@H](O)[C@H](O)CC[C@]5(C)[C@H]4CC[C@]23C)O1 (some centres unmarked) [Compound 3, Methyl-acetal Contignasterol] | 12 |  | 
CC(C)C[C@]1(O)C[C@@H](C)[C@H]2[C@@H]1C(=O)[C@@H]1[C@@H]3[C@@H](O)[C@H](O)[C@H]4C[C@H](O)[C@@H](O)[C@@H](O)[C@]4(C)[C@H]3CC[C@]21C [xestobergsterol B, 23S-16β, 23-cyclo-1β, 2β, 3α, 6α, 7β, 23-hexahydroxy-5α, 14β-cholestan-15-one] |  | potent inhibitors of histamine release | 
